Data on seven molecules can be found in ChEMBL document CHEMBL1146534, “Synthetic method and biological activities of cis-fused alpha-methylene gamma-lactones” (2003).

Common to all, as to type: functional
One test deals with Rhizoctonia solani. Briefly: Prevention of Rhizoctonia solani-mediated sheath blight of rice disease at 500 ppm after 4 days at 28 degC by Pot test.
Test [1] relates to P388. Briefly: Cytotoxicity against mouse P388 cells assessed as cell growth inhibitory ratio at 1 ug/mL after 48 hrs relative to control. On the set-up: scale not given: the % may be the effect or the level left.
For a further test, the system named is Pythium aphanidermatum. The experiment in a line: Prevention of Pythium aphanidermatum-mediated damping off of cucumber disease at 500 ppm/20 mL per pot after 14 days at 25 degC under green house by Pot test.
Test [2] deals with P388. The experiment in a line: Cytotoxicity against mouse P388 cells assessed as cell growth inhibitory ratio at 0.1 ug/mL after 48 hrs relative to control. The arrangement: scale not given: the % may be the effect or the level left.
For test [3], the system named is P388. Briefly: Cytotoxicity against mouse P388 cells assessed as cell growth inhibitory ratio at 10 ug/mL after 48 hrs relative to control. On the set-up: scale not given: the % may be the effect or the level left.
Test [4] concerns Venturia inaequalis. Briefly: Prevention of Venturia inaequalis-mediated scab of apple disease at 500 ppm by Pot test.
A further test deals with Blumeria graminis. Briefly: Prevention of Erysiphe graminis-mediated powdery mildew of wheat disease at 500 ppm after 10 days at 22 deg C under fluorescent lamp by Pot test.
In test [5] the test system is Rhynchosporium secalis. The experiment in a line: Antimicrobial activity against Rhynchosporium secalis at 200 ppm after 11 days at 18 degC.
Test [6] deals with Alternaria. The experiment in a line: Antimicrobial activity against Alternaria kikuchiana at 100 ppm after 4 days at 28 degC.
Test [7] relates to Pyrenophora graminea. The experiment in a line: Antimicrobial activity against Pyrenophora graminea at 50 ppm after 4 days at 28 degC.
Test [8] concerns Venturia inaequalis. Briefly: Antimicrobial activity against Venturia inaequalis at 200 ppm after 11 days at 18 degC.
In test [9] the test system is Rhynchosporium secalis. Briefly: Antimicrobial activity against Rhynchosporium secalis at 100 ppm after 11 days at 18 degC.
The test system of test [10] is Alternaria. The experiment in a line: Antimicrobial activity against Alternaria kikuchiana at 200 ppm after 4 days at 28 degC.
For test [11], the system named is Mycosphaerella. Briefly: Antimicrobial activity against Mycosphaerella melonis at 100 ppm after 4 days at 28 degC.
Test [12] relates to Pyrenophora graminea. The experiment in a line: Antimicrobial activity against Pyrenophora graminea at 200 ppm after 4 days at 28 degC.
For test [13], the system named is Mycosphaerella. Briefly: Antimicrobial activity against Mycosphaerella melonis at 200 ppm after 4 days at 28 degC.
In test [14] the test system is Alternaria. Briefly: Antimicrobial activity against Alternaria kikuchiana at 50 ppm after 4 days at 28 degC.
The subject of test [15] is Mycosphaerella. Briefly: Antimicrobial activity against Mycosphaerella melonis at 50 ppm after 4 days at 28 degC.
In test [16] the test system is Venturia inaequalis. The experiment in a line: Antimicrobial activity against Venturia inaequalis at 100 ppm after 11 days at 18 degC.
Test [17] has as its system Pyrenophora graminea. Briefly: Antimicrobial activity against Pyrenophora graminea at 100 ppm after 4 days at 28 degC.
Test [18] deals with Rhynchosporium secalis. The experiment in a line: Antimicrobial activity against Rhynchosporium secalis at 50 ppm after 11 days at 18 degC.
The test system of test [19] is Venturia inaequalis. The experiment in a line: Antimicrobial activity against Venturia inaequalis at 50 ppm after 11 days at 18 degC.

In the case of `C=C1C(=O)O[C@H]2[C@@H](OC(C)=O)CCCC[C@@H]12`, the Activity in the test with Rhizoctonia solani is given as 30%; in the test with P388 [1] it was 21%; in the test on Pythium aphanidermatum, 100%; with P388 [2], 9%; with P388 [3], 102%; in the test with Venturia inaequalis [4] it was 0%. In the test with Blumeria graminis, this molecule registered an Activity of 30%.

On to `C=C1C(=O)O[C@H]2CC[C@@H](C)CC[C@@H]12`, for which the Activity in the test with Rhizoctonia solani came to 0%; in the test with P388 [1] it was 69%; with Pythium aphanidermatum, 70%; with P388 [2], 38%; in the test on P388 [3], 101%; with Venturia inaequalis [4] it was 0%. The Activity in the test on Blumeria graminis is 0%.

Turning to `C=C1C(=O)O[C@H]2CCCCC[C@@H]12`, the Activity in the test with Rhizoctonia solani was 0%; in the test on P388 [1], 76%; with Pythium aphanidermatum, 0%; in the test with P388 [2], 9%; in the test on P388 [3], 102%; in the test on Venturia inaequalis [4], 90%. Moreover, the Activity with Blumeria graminis is 0%.

As for `C=C1C(=O)O[C@H]2[C@@H](O)CCCC[C@@H]12`, the Activity was 100% in the test on Rhynchosporium secalis [5]; 50% in the test on Rhizoctonia solani; 40% in the test with P388 [1]; 20% in the test on Alternaria [6]; 100% in the test with Pythium aphanidermatum; 11% in the test on P388 [2]. Besides, the Activity is 0% with Pyrenophora graminea [7]; 100% with P388 [3]; 0% in the test with Venturia inaequalis [8]; 60% in the test with Rhynchosporium secalis [9]; 0% with Venturia inaequalis [4]; 50% in the test with Blumeria graminis. For the same molecule, the Activity with Alternaria [10] was found to be 40%; in the test on Mycosphaerella [11] it was 80%; in the test on Pyrenophora graminea [12], 50%; in the test on Mycosphaerella [13] it was 100%; in the test with Alternaria [14], 0%; with Mycosphaerella [15], 70%. For the same molecule, the results for the Activity with Venturia inaequalis [16], in the test with Pyrenophora graminea [17] and in the test with Rhynchosporium secalis [18] were 50%, 0% and 30%, respectively.

As to `CC1=C2CCCCC[C@@H]2OC1=O`, the figures for the Activity in the test on P388 [1], in the test on P388 [2] and in the test with P388 [3] were 4%, 7% and 43%, respectively.

For the molecule `O=C1C[C@@H]2CCCC[C@H](O)[C@@H]2O1`, the Activity in the test with Rhynchosporium secalis [5], with Rhizoctonia solani, in the test with Alternaria [6], with Pythium aphanidermatum, with Pyrenophora graminea [7] and in the test on Venturia inaequalis [8] was 0% each time. Also, the Activity is recorded as 0% in the test with Rhynchosporium secalis [9]; 0% in the test with Venturia inaequalis [4]; 90% in the test on Blumeria graminis; 0% in the test with Alternaria [10]; 0% in the test on Mycosphaerella [11]; 0% in the test on Pyrenophora graminea [12]. Also, the Activity in the test with Mycosphaerella [13], in the test with Alternaria [14], in the test with Mycosphaerella [15], with Venturia inaequalis [19], with Venturia inaequalis [16] and with Pyrenophora graminea [17] was 0% in each case. The same molecule came in with an Activity with Rhynchosporium secalis [18] of 0%.

For `C=C1C(=O)O[C@H]2CC[C@H](C)CC[C@@H]12`, the Activity in the test on Rhizoctonia solani is on record as 0%; in the test on P388 [1], 50%; in the test with Pythium aphanidermatum, 100%; in the test on P388 [2], 15%; in the test on P388 [3] it was 102%; in the test on Venturia inaequalis [4], 0%. The molecule further returned an Activity in the test with Blumeria graminis of 0%.
